# According to publication PMC9396876, “GRK3 is a poor prognosticator and serves as a therapeutic target in advanced gastric adenocarcinoma” (Journal of Experimental & Clinical Cancer Research : CR, 2022):
# Key:
# [1] = biological target: T1, GRK3 (G protein-coupled receptor kinase 3) (Homo sapiens, UniProt P35626); experiment: in vitro kinase assay (Z-LYTE; ADP-Glo); type: biochemical
# T1 construct: recombinant GRK3 protein
# T1 sequence (P35626 1-688): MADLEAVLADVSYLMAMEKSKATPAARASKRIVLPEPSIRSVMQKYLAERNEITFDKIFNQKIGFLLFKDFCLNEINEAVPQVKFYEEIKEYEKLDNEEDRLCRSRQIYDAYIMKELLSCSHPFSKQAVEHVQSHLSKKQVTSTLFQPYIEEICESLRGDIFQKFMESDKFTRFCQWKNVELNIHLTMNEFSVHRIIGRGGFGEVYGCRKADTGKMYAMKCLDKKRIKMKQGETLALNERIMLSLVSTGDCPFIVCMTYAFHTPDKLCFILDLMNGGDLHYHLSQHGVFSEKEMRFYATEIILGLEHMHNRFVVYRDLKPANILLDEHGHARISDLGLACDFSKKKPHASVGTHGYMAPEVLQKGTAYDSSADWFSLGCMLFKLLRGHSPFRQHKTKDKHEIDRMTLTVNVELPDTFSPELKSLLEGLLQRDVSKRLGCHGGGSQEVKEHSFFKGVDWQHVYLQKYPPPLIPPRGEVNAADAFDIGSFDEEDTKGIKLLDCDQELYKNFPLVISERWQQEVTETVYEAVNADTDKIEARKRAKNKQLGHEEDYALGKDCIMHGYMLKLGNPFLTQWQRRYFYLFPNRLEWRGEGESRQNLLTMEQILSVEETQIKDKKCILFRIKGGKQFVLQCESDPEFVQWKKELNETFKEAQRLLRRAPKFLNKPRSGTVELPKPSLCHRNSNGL
# GRK2 = biological target: T2, GRK2 (Homo sapiens, UniProt P25098); experiment: in vitro kinase assay (Z-LYTE; ADP-Glo); type: biochemical
# T2 sequence (P25098 1-689): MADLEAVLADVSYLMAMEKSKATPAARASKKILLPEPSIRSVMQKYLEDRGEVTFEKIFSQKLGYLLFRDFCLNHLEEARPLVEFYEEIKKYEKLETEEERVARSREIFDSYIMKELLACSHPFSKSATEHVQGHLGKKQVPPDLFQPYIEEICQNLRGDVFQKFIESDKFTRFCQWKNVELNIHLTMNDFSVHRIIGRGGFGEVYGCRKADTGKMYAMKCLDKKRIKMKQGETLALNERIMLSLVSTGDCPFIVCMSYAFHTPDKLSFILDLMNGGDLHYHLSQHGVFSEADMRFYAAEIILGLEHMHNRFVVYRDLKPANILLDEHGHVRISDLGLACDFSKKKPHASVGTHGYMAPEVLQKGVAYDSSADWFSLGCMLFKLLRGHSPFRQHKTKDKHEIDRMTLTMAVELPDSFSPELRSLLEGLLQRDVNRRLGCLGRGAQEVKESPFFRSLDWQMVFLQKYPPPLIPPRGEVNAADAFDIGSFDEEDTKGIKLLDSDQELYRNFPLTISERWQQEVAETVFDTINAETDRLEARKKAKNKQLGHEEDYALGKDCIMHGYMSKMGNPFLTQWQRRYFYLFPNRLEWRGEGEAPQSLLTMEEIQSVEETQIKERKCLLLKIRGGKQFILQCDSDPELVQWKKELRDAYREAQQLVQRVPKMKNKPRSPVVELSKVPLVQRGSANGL
compound,measurement,setting,value
Cn1cc(-c2[nH]c3cc(NC(=O)[C@H](N)C4CCCCC4)cc4c3c2C=NNC4=O)cn1 [LD2],IC50,[1],82 nM
same,IC50,GRK2,1950 nM
